Earlier results in patent US20220183969A1, “OCULAR INSERT CONTAINING A GLUCOCORTICOID” (Ocular Therapeutix, Inc., priority 2020, published 2022).

Conditions: for Equivalent Dose: established equivalent oral dose; for Relative Potency: oral glucocorticoid potency with reference to cortisol

Row | SMILES | Equivalent Dose [mg] | Relative Potency
1 | C[C@]12C=CC(=O)C=C1CC[C@@H]1[C@@H]2[C@@H](O)C[C@@]2(C)[C@H]1CC[C@]2(O)C(=O)CO [Prednisolone] | 5 | 4
2 | C[C@]12CCC(=O)C=C1CC[C@@H]1[C@@H]2[C@@H](O)C[C@@]2(C)[C@H]1CC[C@]2(O)C(=O)CO [Cortisol] | 20 | 1
3 | C[C@]12C=CC(=O)C=C1CC[C@H]1[C@@H]3C[C@@H](O)[C@](O)(C(=O)CO)[C@@]3(C)C[C@H](O)[C@@]12F [Triamcinolone] | 4 | 5
4 | C[C@@H]1C[C@H]2[C@@H]3CCC4=CC(=O)C=C[C@]4(C)[C@@]3(F)[C@@H](O)C[C@]2(C)[C@@]1(O)C(=O)CO [Dexamethasone, 9-Fluor-11β,17,21-trihydroxy-16α-methyl-pregna-1,4-dien-3,20-dion] | 0.8 | 25-80
